≈ marks a conversion by molar mass, not a printed value.
System: KB cells
Assay: Growth Inhibition Action on KB cell (in vitro)
Format: cell-based
Details: Homo sapiens, 72 hours incubation, MTT absorbance, final DMSO 0.5%, read-out: IC50 (concentration of 50% growth inhibition) on KB cells
Method: Experiment: Growth Inhibition Action on KB cell (in vitro)
1×10^3 of KB cells/0.1 ml of a cell suspension in MEM medium containing 10% fetal bovine serum was placed in each well of a plate with 96 flat bottom wells, and incubated for 24 hours. This was dissolved in dimethylsulfoxide, and 100 μl of a solution (final concentration of dimethylsulfoxide: 0.5%) of a test compound diluted with the medium was added thereto, followed by incubation for 72 hours. After incubation, 4,5-dimethylthiazol-2-yl-2,5-diphenyltetrazolium bromide reagent (a color reagent) was added, and the mixture was further incubated for 4 hours.
100 μl of the medium (final concentration of dimethylsulfoxide:0.5%) was added as a control, and incubated in a similar manner. After incubation, the medium was removed, and the cells were dissolved in 150 μl of dimethylsulfoxide and the absorbance was determined. The ratio of the absorbance of the group treated with the test compound to that of the control group was determined, and the concentration of 50% growth inhibition (IC50) was calculated.

Question: `CC(C)C[C@@H](O)[C@@]1([C@H]2CC[C@H]3[C@@H]4CC[C@H]5CC(=O)CC[C@]5(C)[C@H]4C[C@@H](O)[C@]23C)CO1` [Compound (12a)] was tested. Which IC50 did it give?
Answer: 0.0965 µg/mL (≈ 0.231 µM)

Source: patent US5712263A, “Steroid derivatives” (Taisho Pharmaceutical Co., Ltd., priority 1993, dated 1998)
